Laboratory results: US8597904B2, “Pharmaceutical compositions for the treatment of conditions responsive to proteasome inhibition” (priority 2007, dated 2013)
Like-named read-outs stand apart in the source and are kept apart here.

Experiments:
[1] = molecular target: T1, human erythrocyte 20S proteasomes, chymotrypsin-like activity (Homo sapiens, UniProt P28074); type: biochemical; conditions: for inhibition of chymotrypsin-like activity: 37° C., 100 μM Suc-LLVY-AMC
T1 construct: which contains human erythrocyte 20S proteasomes; purchased BIOMOL International AK-740; host or cells: human erythrocytes
Method: A 100 μl reaction volume contained 2 μg/ml 20S proteasome, 100 μM substrate, and the desired concentrations of syringolin A in dilution buffer (50 mM Tris-HCl, pH 7.5, 25 mM KCl, 10 mM NaCl, 1 mM MgCl2). Epoximicin and MG132 (BIOMOL® International) were used as test inhibitors. The release of free AMC (7-amino-4-methylcoumarin) at 37° C. was monitored with an MWGt Sirius HT fluorescence microplate reader (BIO-TEK® Instruments) equipped with a 360 nm excitation and a 460 nm emission filter. Proteolytic activities were measured as the increase in relative fluorescence units (RFU) over time (FIG. 7A-C). […] The initial velocities (vi) were determined from the time derivative of these curves and plotted versus the corresponding inhibitor concentration ([I]). […] Using SigmaPlot, the data were fitted to the hyperbolic equation vi=c+[v0/(Ki′+[I])], where v0 is the velocity of the control. […] The rate of covalent inhibition (kassociation), which equals kobs/[I] was calculated over the range of inhibitor concentrations given in parentheses in FIG. 7D. Values in FIG. 7D represent means±standard deviation.
The fluorogenic substrates Suc-LLVY-AMC, Boc-LRR-AMC, and Z-LLE-AMC (BIOMOL® International) were used to monitor chymotrypsin-like, trypsin-like, and caspase-like activities, respectively. […] The release of free AMC (7-amino-4-methylcoumarin) at 37° C. was monitored with an MWGt Sirius HT fluorescence microplate reader (BIO-TEK® Instruments) equipped with a 360 nm excitation and a 460 nm emission filter.

[2] = molecular target: T2, proteasome activity in SKOV3 ovarian cancer cells (Homo sapiens, UniProt P28074); assay: Proteasome-Glo cell-based luminescent assay
T2 construct: in vivo proteasome activity in SK-N-SH neuroblastoma cells and SKOV3 human ovarian cancer cells; endogenous in cells; host or cells: SKOV3
T2 sequence (P28074 60-263): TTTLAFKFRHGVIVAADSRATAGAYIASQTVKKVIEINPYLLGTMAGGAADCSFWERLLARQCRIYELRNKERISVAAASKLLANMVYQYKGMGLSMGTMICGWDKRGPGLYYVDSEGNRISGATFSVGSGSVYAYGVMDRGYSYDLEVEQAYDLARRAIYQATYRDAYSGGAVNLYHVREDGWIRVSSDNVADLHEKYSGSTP
Method: Syringolin A was tested as a proteasome inhibitor in vivo in cultured mammalian cancer cells. Inhibition of proteasome activity in human SK-N-SH neuroblastoma cells was measured using the Proteasome-Glo™ cell-based luminescent assay (Promega) in solid white 96-well microtiter cell culture plates. Ten μl of syringolin A (at various concentrations) was added to each well containing SK-N-SH cells (plated at a concentration of 1.0×10^5 cells/ml in 90 μl well volumes 24 hours prior) and a negative control and media only control were included. Cells were incubated with 1-100 μM syringolin A for 2 hours or 24 hours, and then equilibrated to room temperature for 15 minutes before 100 μl of Proteasome-Glo reagent (containing bioluminescent substrate Suc-LLVY-aminoluciferin) was added to the cells. Luminescence (indicated as relative luminescence units [RLU]) was read after 15-30 minutes on a Dynex MLX Luminometer.
The cell culture-based proteasome inhibition assay was performed as previously described (Groll et al. 2008. Nature 452:755-758, which is incorporated herein by reference in its entirety). Briefly, wells of white-walled 96-well microtiter cell culture plates were seeded at a density of 1×10^4 cells/well (SK-N-SH) or 5×10^3 cells/well (SKOV3) in 90 μl. After 24 hours, 10 μl GlbA or SylA were added at increasing concentrations (0-100 μM) and incubated for 2 hours. […] Cell Death Differ 9:1017-1025; Meng, et al. 1999. PNAS 96:10403-10408, each of which is incorporated herein by reference in its entirety) were used as positive and negative controls, respectively. Microtiter plates were then equilibrated to room temperature for 15 min before adding 100 μl of proteasome Glo™ reagent (containing bioluminescent substrate Suc-LLVY-aminoluciferin) per well. Luminescence was measured on a Dynex MLX luminometer, according to the manufacturer's instructions (Promega).

TH-MYCN transgenic mouse = assay: tumor reduction in TH-MYCN mouse model of human neuroblastoma; type: in vivo; conditions: homozygous mice, i.p. and/or i.v., every 72 hours for 3 to 6 weeks, vs untreated mice
Text: The TH-MYCN transgenic mouse is a well-established neuroblastoma mouse model (Hansfored, et al. 2004. PNAS 101(34):12664-12669; Weiss, et al. 2007. Cancer Res 67(19):9435-9442; Weiss, et al. 2000. Cancer Res 6″2483-2487, each of which is incorporated herein by reference in its entirety). The tumors are caused by targeted expression of MYCN to the neural crest under the control of the rat tyrosine hydroxylase promoter, where the mice develop a tumor phenotype that closely resembles the human disease. The tumors in this strain of mouse generally develop in the abdominal and thoracic areas. TH-MYCN breeder pairs are supplied as hemizygote (129×1/SvJ-Tg(TH-MYCN)41Waw) and a wild type mate (129×1/SvJ).
Test compounds are administered to homozygous mice at a dose that is developed based upon the results of the initial dose and toxicity study (Example 15). Two to four doses per compound are administered by i.p. and/or i.v. methods into homozygous mice when palpable tumors begin to form. Vehicle is delivered […] as a control. Further doses are administered thereafter every 72 hours for 3 to 6 weeks. Between eight to twelve mice are tested in the study for administration of each compound. […] At the conclusion of the study, the mice are sacrificed and tumor size and number of tumors are assessed.

| SMILES | inhibition of chymotrypsin-like activity [1] | IC50 ([2]; SKOV3, 2 hours, read-out: IC50 of proteasomal activity) [nM] | potency of GlbA relative to SylA ([2]; SKOV3, ratio of IC50) | size and number of tumors (TH-MYCN transgenic mouse) | mode of proteasome inhibition (reaction velocity over time) ([1]; FIG. 7A) | IC50 [2] [nM] | proteasome activity in cells ([2]; SKOV3, 2 hours incubation, listed as SylA) |
| --- | --- | --- | --- | --- | --- | --- | --- |
| CCCCCCC/C=C/C=C/C(=O)N[C@H](C(=O)N[C@H]1C[C@@H](O)CCNC(=O)/C=C/[C@H](C)NC1=O)[C@@H](C)O [glidobactin A] | blocked the chymotrypsin-like activity irreversibly at low concentrations | 250 | approximately 16 fold | effective in reducing both the size and number of tumors | – | – | – |
| CC(C)[C@H](NC(=O)N[C@H](C(=O)N[C@H]1/C=C/CCNC(=O)/C=C/[C@H](C(C)C)NC1=O)C(C)C)C(=O)O [syringolin A] | inhibited | – | – | effective in reducing both the size and number of tumors | irreversible proteasome inhibitor | 4030 | dose-dependent manner |
